Source: PMC9505538, “P-Glycoprotein (MDR1/ABCB1) Restricts Brain Accumulation of the Novel EGFR Inhibitor EAI045 and Oral Elacridar Coadministration Enhances Its Brain Accumulation and Oral Exposure” (Pharmaceuticals, 2022)
Where “and” joins values, the source holds several entries; their conditions need not be identical. Equal values may be shown once.

Key:
[1] = 30-min pharmacokinetic experiment with oral elacridar coadministration in WT mice
Procedure: Considering the potential therapeutic benefit of increasing EAI045 brain penetration, and possibly also plasma exposure, we investigated to what extent elacridar, a dual ABCB1 and ABCG2 inhibitor, could increase the brain penetration and oral exposure of EAI045. We performed a 30-min pharmacokinetic experiment with an EAI045 dose of 20 mg/kg, and elacridar at 50 mg/kg. As elacridar plasma concentration peaks around 3–4 h after oral administration, elacridar was administered orally 3 h prior to oral EAI045 administration to male WT mice. Plasma and tissue EAI045 levels were determined 30 min later.
Mice (Mus musculus) were bred in the Netherlands Cancer Institute and housed and handled according to institutional guidelines complying with Dutch and EU legislation. Animals used were WT, Abcb1a/1b^-/- [39], Abcg2^-/- [40], Abcb1a/1b;Abcg2^-/- [41], Cyp3a^-/- [42], and Oatp1a/1b^-/- [43] mice of a >99% FVB/N strain background. Homozygous CYP3A4 humanized transgenic mice (Cyp3aXAV) were generated by cross-breeding of transgenic mice with stable human CYP3A4 expression in the liver or intestine, respectively, in a Cyp3a^-/- background. Proper functionality of the knockout and transgenic strains was monitored by regular testing with a variety of drug substrates. All the mice used were between 10 and 15 weeks of age. Animals were kept in a temperature-controlled environment with a 12 h light/12 h dark cycle and received a standard diet (Transbreed, SDS Diets, Technilab-BMI, The Netherlands) and acidified water ad libitum. Depending on the type of experiment, 5 or 6 mice were tested in each experimental group. All experimental animal protocols, including power calculations, were ethically assessed and designed under the nationally approved DEC/CCD project AVD301002016595 (approval date, 10 August 2016) and evaluated and approved by the institutional animal care and use committee (IACUC) of the Netherlands Cancer Institute.
EAI045 was dissolved in dimethyl sulfoxide (DMSO) at a concentration of […], and then diluted with a mixture of polysorbate 80/ethanol (1:1, v/v), and further diluted with 5% (w/v) glucose in water to yield a concentration of 2 mg/mL. Final concentrations for DMSO, polysorbate 80, ethanol, and glucose in the dosing solution were 5%, 2.5%, 2.5%, and 4.5% (v/v/v/w), respectively. Elacridar hydrochloride was dissolved in DMSO at a concentration of 53 mg/mL, then diluted with a mixture of polysorbate 80, ethanol, and water [20:13:67, (v/v/v)] to yield a concentration of 5 mg/mL elacridar. The final oral dose of elacridar was 50 mg/kg body weight. All dosing solutions were prepared freshly on the day of experiment.
To minimize variation in absorption, mice were fasted for about 3 h before EAI045 was administered by gavage into the stomach (n = 5–6), using a blunt-ended needle. EAI045 was administered orally at dose of 20 mg/kg. Elacridar was administered orally at a dose of 50 mg/kg, 3 h prior to oral EAI045 administration. For the 24- or 4-h experiments, tail vein blood samplings were performed at 5 min, 30 min, 1, 2, 4, and 8 h, or 5 min, 15 min, 30 min, 1, and 2 h time points after oral administration of EAI045, respectively, using microvettes containing heparin. For the 30 min experiments, blood samplings were performed at 5, 10, and 20 min from the tail vein. At the last time point (24 h, 4 h, or 30 min), mice were anesthetized with isoflurane and blood was collected by cardiac puncture. Then, mice were sacrificed by cervical dislocation and brain, liver, spleen, kidneys, lung, small intestine with content (SIWC), and testis were rapidly removed and weighed. Tissues were homogenized on ice in appropriate volumes of 2% (w/v) BSA. Blood samples were centrifuged at 9000× g for 6 min at 4 °C immediately after collection.

[2] = 24 h pharmacokinetic pilot experiment in WT, Cyp3a-/- and Cyp3aXAV mice; type: in vivo, mice (Mus musculus)
Procedure: To determine whether EAI045 and CYP3A interact in vivo, we carried out a 24 h pharmacokinetic pilot experiment using oral EAI045 at 20 mg/kg in female WT, Cyp3a knockout (Cyp3a^-/-), and transgenic Cyp3aXAV mice (these are humanized Cyp3a^-/- mice that express the human CYP3A4 in liver and small intestine). The plasma exposure and tissue distribution of EAI045 and PIA were measured. The tmax in all strains was around 5–30 min. […] In contrast, relative to Cyp3a^-/- or WT mice, the AUC0–30min and Cmax were not changed in Cyp3aXAV mice (Supplemental Figure S8A–C). Similar results were obtained for PIA (Supplemental Figure S8D–F). While not plotted separately, the PIA/EAI045 AUC ratios were also hardly changed between the three mouse strains.
All samples were stored at −30 °C until analysis.
Differences were considered statistically significant when p < 0.05. Data are presented as mean ± SD.

[3] = system: lung cancer driven by EGFR(L858R/T790M); conditions: cited from earlier work
[4] = WT + elacridar compared to Abcb1a/1b;Abcg2-/- mice, 30 min
[5] = male WT mice + elacridar, EAI045 20 mg/kg oral, 30 min
[6] = male WT mice + elacridar, EAI045 20 mg/kg oral, plasma

O=C(Nc1nccs1)C(c1cc(F)ccc1O)N1Cc2ccccc2C1=O (centres unmarked) [EAI045]
plasma AUC0–30min, fold increase ([1]; WT + elacridar compared to Abcb1a/1b;Abcg2-/- mice): 2.4 fold | SIWC%, fold decrease [1, 4]: 3.5 fold | SIWC%-to-plasma ratio, fold decrease [1, 4]: 8.6 fold | Fold change Cbrain ([1]; WT + elacridar vs WT, 30 min): 17 fold and 17.0 fold | Fold change Ctestis ([1]; WT + elacridar vs WT, 30 min): 8.7 fold | Fold change Kp.SIWC% ([1]; WT + elacridar vs WT, 30 min): 0.032 fold | Fold change Kp.brain ([1]; WT + elacridar vs WT, 30 min): 5.4 fold | Fold change Kp.testis ([1]; WT + elacridar vs WT, 30 min): 2.6 fold | Fold change SIWC% ([1]; WT + elacridar vs WT, 30 min): 0.13 fold | Kp.SIWC% (SIWC%-to-plasma ratio), fold decrease ([1]; WT + elacridar vs WT, 30 min): 30.8 fold | SIWC%, fold decrease ([1]; WT + elacridar vs WT, 30 min): 7.5 fold | Fold change AUC ([1]; WT + elacridar vs WT, plasma AUC0–30min, EAI045 20 mg/kg oral, 20 mg/kg): 4 fold and 4.0 fold | Plasma AUC0–30min ([1]; male WT mice + elacridar 50 mg/kg oral 3 h before, EAI045 20 mg/kg oral): 549 ± 82 ***^. +++ h*ng/mL | Cbrain (brain concentration) [1, 5]: 395.9 ± 123.1 ***^. +++ ng/g | Ctestis (testis concentration) [1, 5]: 198.7 ± 58.9 ***^. +++ ng/g | Kp.SIWC% (SIWC%-to-plasma ratio) [1, 5]: 5.13 ± 2.63 | Kp.brain (brain-to-plasma ratio) [1, 5]: 0.560 ± 0.200 | Kp.testis (testis-to-plasma ratio) [1, 5]: 0.280 ± 0.096 | SIWC% (drug percentage of dose in small intestine with content) [1, 5]: 4.00 ± 2.57 % | Cmax [1, 6]: 1512 ± 260 ng/mL | tmax [1, 6]: 10 to 30 min | plasma exposure of EAI045 over 30 min (AUC0–30min), fold lower ([2]; Cyp3a-/- mice than WT mice, 20 mg/kg oral): 1.6 fold | AUC0–30min and Cmax ([2]; Cyp3aXAV mice relative to Cyp3a-/- or WT mice, 20 mg/kg oral): not changed | tmax ([2]; female WT, Cyp3a-/- and Cyp3aXAV mice (all strains), EAI045 20 mg/kg oral): 5 to 30 min | effect in L858R/T790M mutant mice, combination treatment ([3]; EAI045 combined with cetuximab): marked tumor regressions | effect in L858R/T790M mutant mice, agent alone ([3]; single agent): very modest effect
